Experimental findings from US7659394B2 (Pfizer Inc, priority 2004, dated 2010) are described below.

In experiment [1] the target is T1, human norepinephrine transporter (Homo sapiens, UniProt P23975).
T1 construct: host or cells: HEK-293
Briefly: hNET receptor binding ([125I]-RTI-55 radioligand binding). The conditions noted are these: membranes of HEK-293 cells transfected with human norepinephrine transporter, IC50 converted to Ki by Cheng-Prusoff. From the text: (§1) The ability of the compounds of this invention to bind to the hNET and serotonin SERT receptor can be determined using conventional radiolig and receptor binding assays. The receptors can be heterologously expressed in cell lines and experiments conducted in membrane preparations from the cell lines using procedures outlined below. IC50 concentrations can be determined by nonlinear regression of concentration-dependent reduction in specific binding. The Cheng-Prussoff equation can be used to convert the IC50 to Ki concentrations.
Cell pastes of HEK-293 cells transfected with the human norepinephrine transporter were supplied by the Pfizer Ann Arbor Protein Expression and Production group. […] Aliquots of membranes (5 mg/ml protein) were stored in liquid nitrogen until used.
The reaction was incubated by gentle agitation for 90 min at room temperature and was terminated by filtration through Whatman GF/C filter plates using a Brandel 96-well plate harvester. […] Test compounds were run in duplicate, and specific binding was defined as the difference between binding in the presence and absence of 10 μM desipramine.
(§2) Excel and GraphPad Prism software were used for data calculation and analysis. IC50 values were converted to Ki values using the Cheng-Prusoff equation.

Experiment [2] concerns the target T2, human seritonin transporter (Homo sapiens, UniProt P31645).
T2 construct: host or cells: HEK-293
Briefly: hSERT receptor binding ([125I]-RTI-55 radioligand binding). The conditions noted are these: membranes of HEK-293 cells transfected with human seritonin transporter, IC50 converted to Ki by Cheng-Prusoff, read-out: SERT (Ki).
Excerpt: as §1
Cell pastes of HEK-293 cells transfected with the human seritonin transporter were supplied by the Pfizer Ann Arbor Protein Expression and Production group. […] Aliquots of membranes (5 mg/ml protein) were stored in liquid nitrogen until used.
The reaction was incubated by gentle agitation for 90 min at room temperature and was terminated by filtration through Whatman GF/C filter plates using a Brandel 96-well plate harvester. […] Test compounds were run in duplicate, and specific binding was defined as the difference between binding in the presence and absence of […] citalopram.
as §2

Like-named read-outs stand apart in the source and are kept apart here.

T2 sequence (P31645 whole entry): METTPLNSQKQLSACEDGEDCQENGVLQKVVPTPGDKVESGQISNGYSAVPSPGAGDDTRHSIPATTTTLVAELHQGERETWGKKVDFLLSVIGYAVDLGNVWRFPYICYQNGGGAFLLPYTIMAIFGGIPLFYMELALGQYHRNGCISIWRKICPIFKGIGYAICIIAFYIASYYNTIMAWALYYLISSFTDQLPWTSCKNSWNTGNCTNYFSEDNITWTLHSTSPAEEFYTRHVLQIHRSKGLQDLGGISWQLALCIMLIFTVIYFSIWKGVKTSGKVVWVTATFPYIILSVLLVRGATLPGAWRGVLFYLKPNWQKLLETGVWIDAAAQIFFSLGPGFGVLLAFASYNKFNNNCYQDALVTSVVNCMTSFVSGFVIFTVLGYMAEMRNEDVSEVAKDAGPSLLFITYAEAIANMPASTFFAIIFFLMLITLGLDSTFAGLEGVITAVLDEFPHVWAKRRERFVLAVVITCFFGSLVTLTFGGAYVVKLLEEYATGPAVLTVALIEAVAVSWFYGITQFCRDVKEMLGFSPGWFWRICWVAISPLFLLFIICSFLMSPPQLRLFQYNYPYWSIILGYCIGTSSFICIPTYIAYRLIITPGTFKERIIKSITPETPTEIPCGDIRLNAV
T1 sequence (P23975 whole entry): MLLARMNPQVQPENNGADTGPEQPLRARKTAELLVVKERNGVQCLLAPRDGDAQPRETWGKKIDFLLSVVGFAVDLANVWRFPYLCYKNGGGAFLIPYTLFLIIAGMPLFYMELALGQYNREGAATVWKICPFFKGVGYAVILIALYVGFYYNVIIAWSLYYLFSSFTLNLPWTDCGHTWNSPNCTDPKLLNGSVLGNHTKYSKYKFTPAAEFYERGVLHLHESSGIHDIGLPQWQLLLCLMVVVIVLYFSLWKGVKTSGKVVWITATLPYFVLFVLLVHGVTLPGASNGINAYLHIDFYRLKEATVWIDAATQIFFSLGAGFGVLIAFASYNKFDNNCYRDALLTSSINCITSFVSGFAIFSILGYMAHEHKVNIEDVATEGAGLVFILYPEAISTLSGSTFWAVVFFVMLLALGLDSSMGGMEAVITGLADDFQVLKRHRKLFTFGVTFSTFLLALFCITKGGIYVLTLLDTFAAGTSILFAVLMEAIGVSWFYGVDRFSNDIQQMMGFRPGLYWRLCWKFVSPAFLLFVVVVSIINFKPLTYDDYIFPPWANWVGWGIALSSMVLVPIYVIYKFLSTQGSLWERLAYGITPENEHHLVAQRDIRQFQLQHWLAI

What is called Ki is a dissociation constant, usually derived from enzyme kinetics or from competition with a known ligand. As for `c1ccc([C@H](Oc2ccccc2-c2ccncc2)[C@@H]2CNCCO2)cc1` [Example 10, (S)-2-[(S)-Phenyl-(2-pyridin-4-yl-phenoxy)-methyl]-morpholine], the Ki in experiment [1] (read-out: hNET (Ki)) is 689 nM; in experiment [2] it was at least 10000 nM.

As for `c1ccc([C@H](Oc2ccccc2C2CC2)[C@@H]2CNCCO2)cc1` [Example 11, (S)-2-[(S)-(2-Cyclopropyl-phenoxy)-phenyl-methyl]-morpholine], the inhibition constant Ki in experiment [1] (read-out: hNET (Ki)) was determined as 1.8 nM; in experiment [2] it was 452 nM.

`c1ccc([C@H](Oc2cccc3ccccc23)[C@@H]2CNCCO2)cc1` [Example 12, (S)-2-[(S)-(Naphthalen-1-yloxy)-phenyl-methyl]-morpholine]: the Ki in experiment [1] (read-out: hNET (Ki)) turned out to be 6.7 nM; in experiment [2], 6.4 nM.

`c1ccc([C@H](Oc2ccccc2-c2cccnc2)[C@@H]2CNCCO2)cc1` [Example 13, (S)-2-[(S)-Phenyl-(2-pyridin-3-yl-phenoxy)-methyl]-morpholine]: the Ki in experiment [1] (read-out: hNET (Ki)) turned out to be 18 nM; in experiment [2], 4100 nM.

Turning to `c1ccc(Oc2ccccc2O[C@@H](c2ccccc2)[C@@H]2CNCCO2)cc1` [Example 14, (S)-2-[(S)-(2-Phenoxy-phenoxy)-phenyl-methyl]-morpholine], the Ki was 61 nM in experiment [1] (read-out: hNET (Ki)) and at least 10000 nM in experiment [2].

In the case of `CCOC(=O)c1ccccc1O[C@@H](c1ccccc1)[C@@H]1CNCCO1` [Example 15, (2S,3S)-2-(Morpholin-2-yl-phenyl-methoxy)-benzoic acid ethyl ester], the inhibitory constant (Ki) in experiment [1] (read-out: hNET (Ki)) is 15 nM; in experiment [2], 3770 nM.

With `Clc1ccc(-c2ccccc2O[C@@H](c2ccccc2)[C@@H]2CNCCO2)cc1` [Example 16, (S)-2-[((S)-4′-Chloro-biphenyl-2-yloxy)-phenyl-methyl]-morpholine], the Ki amounted to 99 nM in experiment [1] (read-out: hNET (Ki)) and 4500 nM in experiment [2].

As to `Fc1ccccc1O[C@@H](c1ccccc1)[C@H]1CNCCO1` [Example 18, (R)-2-[(S)-(2-Fluoro-phenoxy)-phenyl-methyl]-morpholine], the values for the Ki in experiment [1] (read-out: hNET (Ki)) and in experiment [2] were 133 nM and 72 nM, respectively.

In the case of `CCOc1ccccc1O[C@H](c1ccccn1)[C@@H]1CNCCO1` [Example 20, (S)-2-[(R)-(2-Ethoxy-phenoxy)-pyridin-2-yl-methyl]-morpholine], the inhibitory constant (Ki) was 593 nM in experiment [1] (read-out: hNET (Ki)) and at least 10000 nM in experiment [2].

Consider `CCOc1ccccc1O[C@@H](c1ccccn1)[C@@H]1CNCCO1` [Example 21, (S)-2-[(S)-(2-Ethoxy-phenoxy)-pyridin-2-yl-methyl]-morpholine], for which the Ki amounted to 6.8 nM in experiment [1] (read-out: hNET (Ki)) and 2500 nM in experiment [2].

In the case of `N#Cc1ccccc1OC(c1cccnc1)[C@@H]1CNCCO1` (stereo partly drawn) [Example 24, (2S,3R)-2-(Morpholin-2-yl-pyridin-3-yl-methoxy)-benzonitrile], the Ki was 210 nM in experiment [1] (read-out: hNET (Ki)) and 7720 nM in experiment [2].

As for `FC(F)(F)Oc1ccccc1O[C@@H](c1cccnc1)[C@H]1CNCCO1` [Example 26, (R)-2-[(S)-Pyridin-3-yl-(2-trifluoromethoxy-phenoxy)-methyl]-morpholine], the Ki is 359 nM in experiment [1] (read-out: hNET (Ki)) and 2440 nM in experiment [2].

`Fc1ccc(O[C@H](c2ccccn2)[C@H]2CNCCO2)c(F)c1` [Example 27]: the Ki in experiment [1] (read-out: hNET (Ki)) turned out to be 7900 nM; in experiment [2], 412 nM.

On to `Fc1ccc(O[C@@H](c2ccccn2)[C@H]2CNCCO2)c(F)c1` [Example 28], for which the Ki in experiment [1] (read-out: hNET (Ki)) is 8410 nM; in experiment [2], 1410 nM.

For `[O-][n+]1ccccc1O[C@@H](c1ccccc1)[C@@H]1CNCCO1` [Example 29, (S)-2-[((S)-1-Oxy-pyridin-2-yloxy)-phenyl-methyl]-morpholine], the results for the Ki in experiment [1] (read-out: hNET (Ki)) and in experiment [2] were 154 nM and at least 10000 nM, respectively.

With `Clc1ccccc1-c1ccccc1O[C@@H](c1ccccc1)[C@@H]1CNCCO1` [Example 30, (S)-2-[(S)-(2′-Chloro-biphenyl-2-yloxy)-phenyl-methyl]-morpholine], the Ki in experiment [1] (read-out: hNET (Ki)) is 41 nM; in experiment [2], at least 10000 nM.

As for `Fc1ccc(Oc2ncccc2OC[C@@H]2CNCCO2)cc1` [Example 32, (S)-2-[2-(4-Fluoro-phenoxy)-pyridin-3-yloxymethyl]-morpholine], the Ki is 36 nM in experiment [1] (read-out: hNET (Ki)) and at least 10000 nM in experiment [2].

For the compound `Fc1ccc(-c2ncccc2O[C@@H](c2ccccc2)[C@@H]2CNCCO2)cc1` [Example 33, (S)-2-{(S)-[2-(4-Fluoro-phenyl)-pyridin-3-yloxy]-phenyl-methyl}-morpholine], the results for the Ki in experiment [1] (read-out: hNET (Ki)) and in experiment [2] were 22 nM and 2410 nM, respectively.

`Fc1ccc([C@H](Oc2ccccc2F)[C@H]2CNCCO2)cc1` [Example 34, (R)-2-[(S)-(2-Fluoro-phenoxy)-(4-fluoro-phenyl)-methyl]-morpholine]: the Ki was 141 nM in experiment [1] (read-out: hNET (Ki)) and 184 nM in experiment [2].

`CCOc1ccccc1OC(c1ccc(F)cc1)[C@H]1CNCCO1` (stereo partly shown) [Example 35]: the Ki in experiment [1] (read-out: hNET (Ki)) is 11 nM; in experiment [2] it was 605 nM.

For `Fc1cccc(F)c1O[C@@H](c1ccccc1)[C@@H]1CNCCO1` [Example 36, (S)-2-[(S)-(2,6-Difluoro-phenoxy)-phenyl-methyl]-morpholine], the Ki in experiment [1] (read-out: hNET (Ki)) was 3.7 nM; in experiment [2] it was 471 nM.

As to `CCOc1ccccc1OC(CC1CCCCC1)[C@@H]1CNCCO1` (stereo partly drawn) [Example 37, (S)-2-[(S)-2-Cyclohexyl-1-(2-ethoxy-phenoxy)-ethyl]-morpholine and (2S,3-R)-2-[2-Cyclohexyl-1-(2-ethoxy-phenoxy)-ethyl]-morpholine], the Ki in experiment [1] (read-out: hNET (Ki)) is 12 nM; in experiment [2] it was 163 nM.

Turning to `CCOc1ccccc1O[C@@H](CC(C)C)[C@@H]1CNCCO1` [Example 38, (S)-2-[(S)-1-(2-Ethoxy-phenoxy)-3-methyl-butyl]-morpholine], the results for the Ki in experiment [1] (read-out: hNET (Ki)) and in experiment [2] were 517 nM and 4100 nM, respectively.

For the compound `C=CCc1ccccc1O[C@@H](c1ccccc1)[C@@H]1CNCCO1` [Example 39, (S)-2-[(S)-(2-Allyl-phenoxy)-phenyl-methyl]-morpholine], the Ki in experiment [1] (read-out: hNET (Ki)) is 3.7 nM; in experiment [2], 475 nM.

As for `c1ccc([C@H](Oc2cccnc2)[C@@H]2CNCCO2)cc1` [Example 40, (S)-2-[(S)-Phenyl-(pyridin-3-yloxy)-methyl]-morpholine], the values for the inhibition constant Ki in experiment [1] (read-out: hNET (Ki)) and in experiment [2] were 317 nM and 828 nM, respectively.

As to `Brc1ncccc1O[C@@H](c1ccccc1)[C@@H]1CNCCO1` [Example 41, (S)-2-[(S)-(2-Bromo-pyridin-3-yloxy)-phenyl-methyl]-morpholine], the Ki in experiment [1] (read-out: hNET (Ki)) and in experiment [2] was 17 nM in each case.

Take `Cc1ccc(-c2ncccc2O[C@@H](c2ccccc2)[C@@H]2CNCCO2)cc1` [Example 42, (S)-2-[(S)-Phenyl-(2-p-tolyl-pyridin-3-yloxy)-methyl]-morpholine]: the values for the inhibition constant Ki in experiment [1] (read-out: hNET (Ki)) and in experiment [2] were 68 nM and 4940 nM, respectively.

Turning to `CC(C)c1ccccc1O[C@@H](c1ccccc1)[C@@H]1CNCCO1` [Example 44, (S)-2-[(S)-(2-Isopropyl-phenoxy)-phenyl-methyl]-morpholine], the Ki was 5.3 nM in experiment [1] (read-out: hNET (Ki)) and 1360 nM in experiment [2].

As to `CC(C)Oc1ccccc1O[C@@H](c1ccccc1)[C@@H]1CNCCO1` [Example 46, (S)-2-[(S)-(2-Isopropoxy-phenoxy)-phenyl-methyl]-morpholine], the Ki in experiment [1] (read-out: hNET (Ki)) stood at 6.5 nM; in experiment [2] it was 5630 nM.

`Fc1ccc([C@H](Oc2ccccc2Br)[C@H]2CNCCO2)cc1` [Example 47, (R)-2-[(S)-(2-Bromo-phenoxy)-(4-fluoro-phenyl)-methyl]-morpholine]: the Ki in experiment [1] (read-out: hNET (Ki)) was found to be 8.4 nM; in experiment [2], 52 nM.

On to `c1ccc([C@H](Oc2ccc3occc3c2)[C@@H]2CNCCO2)cc1` [Example 48, (S)-2-[(S)-(Benzofuran-5-yloxy)-phenyl-methyl]-morpholine], for which the figures for the Ki in experiment [1] (read-out: hNET (Ki)) and in experiment [2] were 31 nM and 10 nM, respectively.

With `Cc1ccccc1O[C@@H](c1ccccc1)[C@@H]1CNCCO1` [Example 49, (S)-2-((S)-Phenyl-o-tolyloxy-methyl)-morpholine], the figures for the Ki in experiment [1] (read-out: hNET (Ki)) and in experiment [2] were 8.9 nM and 729 nM, respectively.

`CCOc1ccccc1O[C@@H](C1CCCCC1)[C@@H]1CNCCO1` [Example 51, (S)-2-[(S)-Cyclohexyl-(2-ethoxy-phenoxy)-methyl]-morpholine]: the figures for the Ki in experiment [1] (read-out: hNET (Ki)) and in experiment [2] were 16 nM and at least 10000 nM, respectively.

For the compound `c1ccc([C@H](Oc2ccccc2N2CCNCC2)[C@@H]2CNCCO2)cc1` [Example 52, (S)-2-[(S)-Phenyl-(2-piperazin-1-yl-phenoxy)-methyl]-morpholine], the Ki in experiment [1] (hNET (Ki)) came out at 1620 nM; in experiment [2], 1350 nM.

`CSc1ccccc1O[C@@H](c1ccccc1)[C@@H]1CNCCO1` [Example 53, (S)-2-[(S)-(2-Methylsulfanyl-phenoxy)-phenyl-methyl]-morpholine]: the Ki in experiment [1] (read-out: hNET (Ki)) turned out to be 5.9 nM; in experiment [2] it was 259 nM.
